US8309546B2, “Morpholinopurine derivatives” (Daiichi Sankyo Company, Limited, priority 2008, dated 2012)

Key:
[1] = target: PI3Kα (Homo sapiens, UniProt P42336); assay: PI3K kinase activity inhibition assay; format: biochemical; conditions: Kinase-Glo Plus ATP detection, read-out: IC50 against PI3K
Procedure, shortened: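 PI3Kα (50 nM solution) was reacted with 30 μM ATP and 45 μM PIP2 solutions, each in HEPES pH 7.4 with MgCl2 and DTT, for 2 h at room temperature. Remaining ATP was measured by Kinase-Glo Plus luminescence, and inhibition was derived from ATP consumed. IC50 was taken from curve fitting of the serial dilutions.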

[2] = system: human colon cancer cell strain HT29; assay: Cell growth inhibition test (MTT), HT29; format: cell-based; conditions: HT-29, 72 h, HT29, 3 days culture, read-out: concentration exhibiting anti-cell effect (GI50)
Procedure, shortened: (§1)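 Cells were seeded per well (AN3CA 5000, IGROV1 1000, HT29 5000), dosed next day and cultured 3 days at 37° C in 5% CO2. Viable cells were read by MTT (4 h, DMSO-solubilized formazan, A540). GI50 was interpolated between the two concentrations bracketing 50% growth rate (T/C %, corrected for day-0 absorbance).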

[3] = system: human endometrial cancer cell strain AN3CA; assay: Cell growth inhibition test (MTT), AN3CA; format: cell-based; conditions: AN3-CA, 72 h, 3 days culture, read-out: concentration exhibiting anti-cell effect (GI50)
Procedure, shortened: as §1

[4] = system: human ovary cancer cell strain IGROV1; assay: Cell growth inhibition test (MTT), IGROV1; format: cell-based; conditions: IGROV-1, 72 h, IGROV1, 3 days culture, read-out: concentration exhibiting anti-cell effect (GI50)
Procedure, shortened: as §1

Sequence of PI3Kα (P42336 whole entry, species assumed): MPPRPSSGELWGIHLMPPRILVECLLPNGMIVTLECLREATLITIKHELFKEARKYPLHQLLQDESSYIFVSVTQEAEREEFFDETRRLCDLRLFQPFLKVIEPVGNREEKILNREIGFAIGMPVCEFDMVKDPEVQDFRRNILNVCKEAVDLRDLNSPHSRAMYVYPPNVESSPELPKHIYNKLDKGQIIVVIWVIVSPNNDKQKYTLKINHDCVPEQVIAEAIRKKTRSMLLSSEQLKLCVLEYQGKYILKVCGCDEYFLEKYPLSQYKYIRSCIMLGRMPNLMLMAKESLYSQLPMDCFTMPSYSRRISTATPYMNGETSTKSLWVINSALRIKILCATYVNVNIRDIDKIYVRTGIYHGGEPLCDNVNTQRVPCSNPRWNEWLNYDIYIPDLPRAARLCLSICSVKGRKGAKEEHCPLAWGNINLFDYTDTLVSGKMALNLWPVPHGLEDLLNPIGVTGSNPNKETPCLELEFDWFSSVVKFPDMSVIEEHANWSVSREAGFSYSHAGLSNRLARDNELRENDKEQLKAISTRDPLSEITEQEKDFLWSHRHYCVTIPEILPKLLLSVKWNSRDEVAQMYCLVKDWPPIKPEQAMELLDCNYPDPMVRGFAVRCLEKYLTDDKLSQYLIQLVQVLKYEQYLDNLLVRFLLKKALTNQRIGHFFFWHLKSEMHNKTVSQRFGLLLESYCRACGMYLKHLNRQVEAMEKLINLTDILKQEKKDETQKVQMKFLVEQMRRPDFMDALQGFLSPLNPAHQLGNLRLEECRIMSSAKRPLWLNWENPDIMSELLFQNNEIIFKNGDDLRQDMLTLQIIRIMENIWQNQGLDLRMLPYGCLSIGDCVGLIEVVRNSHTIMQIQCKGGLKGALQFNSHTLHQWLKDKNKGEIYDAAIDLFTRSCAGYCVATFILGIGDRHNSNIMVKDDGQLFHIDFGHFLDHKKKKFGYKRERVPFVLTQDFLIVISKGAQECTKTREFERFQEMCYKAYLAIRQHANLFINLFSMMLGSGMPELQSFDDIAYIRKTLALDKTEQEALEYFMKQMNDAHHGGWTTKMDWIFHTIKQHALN
Sequence of PI3Kα (P27986 whole entry partner, species assumed): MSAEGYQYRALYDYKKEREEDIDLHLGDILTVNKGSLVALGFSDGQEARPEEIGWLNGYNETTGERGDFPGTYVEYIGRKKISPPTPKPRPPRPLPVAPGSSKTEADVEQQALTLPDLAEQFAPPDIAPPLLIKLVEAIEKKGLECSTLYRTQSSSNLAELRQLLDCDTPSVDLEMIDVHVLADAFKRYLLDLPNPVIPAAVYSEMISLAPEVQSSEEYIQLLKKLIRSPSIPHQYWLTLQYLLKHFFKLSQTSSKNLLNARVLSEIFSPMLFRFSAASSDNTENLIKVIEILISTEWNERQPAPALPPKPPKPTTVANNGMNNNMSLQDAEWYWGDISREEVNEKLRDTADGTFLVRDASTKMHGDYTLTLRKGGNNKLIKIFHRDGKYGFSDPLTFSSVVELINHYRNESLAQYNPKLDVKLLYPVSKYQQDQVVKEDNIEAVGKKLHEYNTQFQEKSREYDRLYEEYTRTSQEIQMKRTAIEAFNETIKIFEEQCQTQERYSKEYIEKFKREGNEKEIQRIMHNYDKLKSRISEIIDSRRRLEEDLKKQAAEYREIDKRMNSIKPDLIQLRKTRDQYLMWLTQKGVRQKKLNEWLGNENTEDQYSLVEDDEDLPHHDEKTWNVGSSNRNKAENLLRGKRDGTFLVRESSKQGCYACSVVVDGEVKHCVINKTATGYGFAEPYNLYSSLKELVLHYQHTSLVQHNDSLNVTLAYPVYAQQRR

Structure (SMILES) | IC50 [1] [µM] | GI50 [2] [µM] | GI50 [3] [µM] | GI50 [4] [µM]
CC(=O)C(=O)N1CCN(c2nc3c(N4CCOCC4)nc(-c4cnc(N)nc4)nc3n2CC(F)(F)F)CC1 [Example 65, 1-{4-[2-(2-Aminopyrimidin-5-yl)-6-morpholin-4-yl-9-(2,2,2-trifluoroethyl)-9H-purin-8-yl]piperazin-1-yl}-1-oxoacetone] | < 0.01 | ≤ 5 | ≤ 5 | ≤ 5
CC(=O)N1CCN(c2nc3c(N4CCOCC4)nc(-c4cnc(N)nc4)nc3n2CC2CC2)C[C@H]1C [Example 97, 5-{8-[(3R)-4-Acetyl-3-methylpiperazin-1-yl]-9-(cyclopropylmethyl)-6-morpholin-4-yl-9H-purin-2-yl}pyrimidin-2-amine] | 0.01 to 0.02 | ≤ 5 | ≤ 5 | ≤ 5
C[C@@H](O)CC(=O)N1CCN(c2nc3c(N4CCOCC4)nc(-c4cnc(N)nc4)nc3n2CC(F)(F)F)CC1 [Example 70, (2R)-4-{4-[2-(2-Aminopyrimidin-5-yl)-6-morpholin-4-yl-9-(2,2,2-trifluoroethyl)-9H-purin-8-yl]piperazin-1-yl}-4-oxobutan-2-ol] | 0.01 to 0.02 | ≤ 5 | ≤ 5 | ≤ 5
CS(=O)(=O)N1CCN(c2nc3c(N4CCOCC4)nc(-c4cnc(N)nc4)nc3n2CC2CC2)CC1 [Example 3, 5-{9-(Cyclopropylmethyl)-8-[4-(methylsulfonyl)piperazin-1-yl]-6-morpholin-4-yl-9H-purin-2-yl}pyrimidin-2-amine] | < 0.01 | ≤ 5 | ≤ 5 | ≤ 5
CC(C)Cn1c(N2CCN(C(=O)C[C@@H](C)O)CC2)nc2c(N3CCOCC3)nc(-c3cnc(N)nc3)nc21 [Example 81, (2R)-4-{4-[2-(2-Aminopyrimidin-5-yl)-9-isobutyl-6-morpholin-4-yl-9H-purin-8-yl]piperazin-1-yl}-4-oxobutan-2-ol] | < 0.01 | ≤ 5 | ≤ 5 | ≤ 5
CC(=O)N1CCN(c2nc3c(N4CCOCC4)nc(-c4cnc(N)nc4)nc3n2CC(C)C)CC1 [Example 2, 5-[8-(4-Acetylpiperazin-1-yl)-9-isobutyl-6-morpholin-4-yl-9H-purin-2-yl]pyrimidin-2-amine] | 0.01 to 0.02 | ≤ 5 | ≤ 5 | ≤ 5
Nc1ncc(-c2nc(N3CCOCC3)c3nc(N4CCN(C(=O)CO)CC4)n(CC(F)(F)F)c3n2)cn1 [Example 67, 2-{4-[2-(2-Aminopyrimidin-5-yl)-6-morpholin-4-yl-9-(2,2,2-trifluoroethyl)-9H-purin-8-yl]piperazin-1-yl}-2-oxoethanol] | < 0.01 | ≤ 5 | ≤ 5 | ≤ 5
C[C@H]1CN(c2nc3c(N4CCOCC4)nc(-c4cnc(N)nc4)nc3n2CC(F)(F)F)CCN1S(C)(=O)=O [Example 62, 5-{8-[(3S)-3-Methyl-4-(methylsulfonyl)piperazin-1-yl]-6-morpholin-4-yl-9-(2,2,2-trifluoroethyl)-9H-purin-2-yl}pyrimidin-2-amine] | < 0.01 | ≤ 5 | ≤ 5 | ≤ 5
CC(C)Cn1c(N2CCN(C(=O)C[C@H](C)O)CC2)nc2c(N3CCOCC3)nc(-c3cnc(N)nc3)nc21 [Example 82, (2S)-4-{4-[2-(2-Aminopyrimidin-5-yl)-9-isobutyl-6-morpholin-4-yl-9H-purin-8-yl]piperazin-1-yl}-4-oxobutan-2-ol] | 0.01 to 0.02 | ≤ 5 | ≤ 5 | ≤ 5
Nc1ncc(-c2nc(N3CCOCC3)c3nc(N4CCN(C=O)CC4)n(CC(F)(F)F)c3n2)cn1 [Example 71, 4-[2-(2-Aminopyrimidin-5-yl)-6-morpholin-4-yl-9-(2,2,2-trifluoroethyl)-9H-purin-8-yl]piperazine-1-carboaldehyde] | < 0.01 | ≤ 5 | ≤ 5 | ≤ 5
CC(C)Cn1c(N2CCN(C(=O)CO)CC2)nc2c(N3CCOCC3)nc(-c3cnc(N)nc3)nc21 [Example 89, 2-{4-[2-(2-Aminopyrimidin-5-yl)-9-isobutyl-6-morpholin-4-yl-9H-purin-8-yl]piperazin-1-yl}-2-oxoethanol] | < 0.01 | ≤ 5 | ≤ 5 | ≤ 5
CC(=O)N1CCN(c2nc3c(N4CCOCC4)nc(-c4cnc(N)nc4)nc3n2CC2CC2)CC1 [Example 10, 5-[8-(4-Acetylpiperazin-1-yl)-9-(cyclopropylmethyl)-6-morpholin-4-yl-9H-purin-2-yl]pyrimidin-2-amine] | < 0.01 | ≤ 5 | ≤ 5 | ≤ 5
CC(C)Cn1c(N2CCN(C(=O)[C@@H](C)O)CC2)nc2c(N3CCOCC3)nc(-c3cnc(N)nc3)nc21 [Example 93] | < 0.01 | ≤ 5 | ≤ 5 | ≤ 5
CC[C@H]1CN(c2nc3c(N4CCOCC4)nc(-c4cnc(N)nc4)nc3n2CC(F)(F)F)CCN1C(C)=O [Example 75, 5-{8-[(3S)-4-Acetyl-3-ethylpiperazin-1-yl]-6-morpholin-4-yl-9-(2,2,2-trifluoroethyl)-9H-purin-2-yl}pyrimidin-2-amine] | < 0.01 | ≤ 5 | ≤ 5 | ≤ 5
CC(C)Cn1c(N2CCN(S(C)(=O)=O)[C@@H](C)C2)nc2c(N3CCOCC3)nc(-c3cnc(N)nc3)nc21 [Example 53, 5-{9-Isobutyl-8-[(3S)-3-methyl-4-(methylsulfonyl)piperazin-1-yl]-6-morpholin-4-yl-9H-purin-2-yl}pyrimidin-2-amine] | 0.01 to 0.02 | ≤ 5 | ≤ 5 | ≤ 5

Next, values leading:

IC50 [1] [µM] | GI50 [2] [µM] | GI50 [3] [µM] | GI50 [4] [µM] | Structure (SMILES)
< 0.01 | ≤ 5 | ≤ 5 | ≤ 5 | CC(C)Cn1c(N2CCN(C=O)CC2)nc2c(N3CCOC[C@@H]3C)nc(-c3cnc(N)nc3)nc21 [Example 132, 4-{2-(2-Aminopyrimidin-5-yl)-9-isobutyl-6-[(3S)-3-methylmorpholin-4-yl]-9H-purin-8-yl}piperazine-1-carboaldehyde]
< 0.01 | ≤ 5 | ≤ 5 | ≤ 5 | C[C@H](O)C(=O)N1CCN(c2nc3c(N4CCOCC4)nc(-c4cnc(N)nc4)nc3n2CC(F)(F)F)C[C@@H]1C [Example 109, (2S)-1-{(2S)-4-[2-(2-Aminopyrimidin-5-yl)-6-morpholin-4-yl-9-(2,2,2-trifluoroethyl)-9H-purin-8-yl]-2-methylpiperazin-1-yl}-1-oxopropan-2-ol]
0.01 to 0.02 | ≤ 5 | ≤ 5 | ≤ 5 | CNc1ncc(-c2nc(N3CCOCC3)c3nc(N4CCN(C(C)=O)[C@H](C)C4)n(CC(F)(F)F)c3n2)cn1 [Example 108, 5-{8-[(3R)-4-Acetyl-3-methylpiperazin-1-yl]-6-morpholin-4-yl-9-(2,2,2-trifluoroethyl)-9H-purin-2-yl}-N-methylpyrimidin-2-amine]
< 0.01 | ≤ 5 | ≤ 5 | ≤ 5 | C[C@@H]1CN(c2nc3c(N4CCOCC4)nc(-c4cnc(N)nc4)nc3n2CC2CC2)CCN1C(=O)[C@@H](C)O [Example 114, (2R)-1-{(2R)-4-[2-(2-Aminopyrimidin-5-yl)-9-(cyclopropylmethyl)-6-morpholin-4-yl-9H-purin-8-yl]-2-methylpiperazin-1-yl}-1-oxopropan-2-ol]
< 0.01 | ≤ 5 | ≤ 5 | ≤ 5 | CNc1ncc(-c2nc(N3CCOCC3)c3nc(N4CCN(S(C)(=O)=O)[C@H](C)C4)n(CC(F)(F)F)c3n2)cn1 [Example 106, N-Methyl-5-{8-[(3R)-3-methyl-4-(methylsulfonyl)piperazin-1-yl]-6-morpholin-4-yl-9-(2,2,2-trifluoroethyl)-9H-purin-2-yl}pyrimidin-2-amine]
< 0.01 | ≤ 5 | ≤ 5 | ≤ 5 | CC(=O)N1[C@H](C)CN(c2nc3c(N4CCOCC4)nc(-c4cnc(N)nc4)nc3n2CC2CC2)C[C@@H]1C [Example 98, 5-{8-[4-Acetyl-cis-3,5-dimethylpiperazin-1-yl]-9-(cyclopropylmethyl)-6-morpholin-4-yl-9H-purin-2-yl}pyrimidin-2-amine]
0.01 to 0.02 | ≤ 5 | ≤ 5 | ≤ 5 | CC(C)Cn1c(N2CCN(C(=O)CO)CC2)nc2c(N3CCOC[C@@H]3C)nc(-c3cnc(N)nc3)nc21 [Example 130, 2-(4-{2-(2-Aminopyrimidin-5-yl)-9-isobutyl-6-[(3S)-3-methylmorpholin-4-yl]-9H-purin-8-yl}piperazin-1-yl)-2-oxoethanol]
0.01 to 0.02 | ≤ 5 | ≤ 5 | ≤ 5 | CC(C)Cn1c(N2CCN(C(=O)[C@H](C)O)CC2)nc2c(N3CCOC[C@@H]3C)nc(-c3cnc(N)nc3)nc21 [Example 131, (2S)-1-(4-{2-(2-Aminopyrimidin-5-yl)-9-isobutyl-6-[(3S)-3-methylmorpholin-4-yl]-9H-purin-8-yl}piperazin-1-yl)-1-oxopropan-2-ol]
